# Experimental data reported in US7772003B2, “Lipid derivatives of aminoglycosides” (Aventis Pharma S.A., priority 2001, dated 2010).
# Entries after “also recorded” stand apart in the source; their conditions may differ.
# Experiments:
# [1] = test system: various cell lines (16HBE, HepG2); assay: In vitro transfection activity spectrum in other, less conventional cell lines (luciferase); format: cell-based; conditions: charge ratios of between 3 and 5; KanaChol alone weaker in particular in 16HBE and HepG2
# Description: FIG. 6: Expression of luciferase in various cell lines transfected either with the transfecting compound KanaChol or with the KanaChol/DOPE (1:1) liposomes. The various cell lines were transfected in accordance with the protocol described in Example 5 using either KanaChol/DNA lipoplexes or KanaChol/DOPE/DNA lipoplexes (with a positive charge ratio of 3-5) prepared by mixing 5 μg of plasmid DNA expressing luciferase and the required amount of lipid to obtain a positive charge ratio of 3-5. The data are expressed in relative light units (RLU) per mg of cellular proteins.
# The in vitro transfection experiments carried out in Examples 4 and 5 were again carried out in a similar way, but with other less conventional cell lines (species and specificity of each cell line are indicated in FIG. 6). The KanaChol/DNA and KanaChol/DOPE/DNA formulations were used at charge ratios of between 3 and 5 (optimum values as defined in Examples 4 and 5).
# HeLa cells = assay: Cytotoxicity by total extractable cellular proteins in the cell lysate; format: cell-based; conditions: 48 hours post-transfection, high charge ratio
# Description: FIG. 4: Cytotoxicity of the transfecting compound KanaChol. HeLa cells were transfected in accordance with the protocol described in Example 3 using lipoplexes prepared by mixing 5 μg of plasmid DNA expressing luciferase with the amount of lipid required to form lipoplexes characterized by the charge ratio indicated. At 48 hours post-transfection, the cells were recovered and the toxicity was quantified using the total amount of cellular proteins in the cell lysate as an index of the number of cells, cell death producing a decrease in the extractable proteins. The total cellular proteins in the cell lysate is indicated as a function of the charge ratio of the lipoplexes. The data are expressed as concentration of extractable cellular proteins in the cell lysate (at fixed volume).
# FIG. 5: Cytotoxicity of the KanaChol/DOPE (molar ratio 1:1) lipsomes. […] At 48 hours post-transfection, the cells were recovered and the toxicity was quantified using the total amount of cellular proteins in the cell lysate as an index of the number of cells, cell death producing a decrease in the extractable proteins. […] The data are expressed as concentration of extractable cellular proteins in the cell lysate (at fixed volume).
# Thus, the cytotoxicity of the KanaChol was also measured at various charge ratios with the DNA. […]
# [2] = Electrophoretic gel shift studies (mean positive charge); format: physicochemical; conditions: complexed with nucleic acids
# Description: (§1) This study was carried out for lipoplexes comprising various amounts of KanaChol: 6.6, 13.2, 33, 66 or 132 nmol of KanaChol per 5 μg of DNA. In order to determine the theoretical mean charge ratio, it was considered that 1 μg of DNA represents 3 nmol of negative charges and that 3 amine groups of kanamycin are protonated at neutral pH during the formation of the lipoplexes and the transfection.
# [3] = test system: HeLa, HEK293 and COS cells; assay: In vitro transfection, dose-response (luciferase reporter gene expression); format: cell-based
# Description: FIG. 2: Dose-response curves of the in vitro transfection activity of the transfecting compound “KanaChol”. The expression of the reporter gene is indicated as a function of the charge ratio of the lipoplexes formed with the plasmid DNA. The HeLa, HEK293 and COS cells were transfected in accordance with the protocol described in Example 3 using lipoplexes prepared by mixing 5 μg of plasmid DNA expressing luciferase with the required amount of lipid. The data are expressed in relative light units (RLU) per mg of cellular proteins.
# FIG. 3: Dose-response curves of the in vitro transfection activity of the KanaChol/DOPE (molar ratio 1:1) liposomes. The expression of the reporter gene is indicated as a function of the charge ratio of the lipoplexes formed with the plasmid DNA. The HeLa, HEK293 and COS cells were transfected in accordance with the protocol described in Example 4 using lipoplexes prepared by mixing 5 μg of plasmid DNA expressing luciferase with the required amount of lipid to form lipoplexes characterized by the charge ratio indicated. The data are expressed in relative light units (RLU) per mg of cellular proteins.
# as §1
# Preparation of the KanaChol/DNA lipoplexes: the KanaChol obtained according to Example 1 was dissolved in a 20 mM Hepes buffer solution (pH 7.4) at a positive charge concentration of 20 mM (considering that 3 amine functions are protonated at neutral pH). The lipoplexes were then prepared in accordance with the protocol described by Vigneron et al. (PNAS, 93, pp. 9682-9686, September. 1996) or by Patel et al. (Biochem. and Biophys. Res. Comm., 281, pp. 536-543, 2001).
# Cell culture: HeLa cells (American Type Culture Collection (ATCC) Rockville, Md., USA) derived from a human cervical epithelium carcinoma were cultured in the presence of a medium of the MEM (minimum essential medium) type supplemented with 10% of fetal calf serum and antibiotics. The medium and the additives came from Gibco/BRL Life Technologies (Gaithersburg, Md., USA). The cells were cultured in flasks at 37° C. and at 5% of carbon dioxide in an incubator. […]
# A 20 μl aliquot of supernatant of the centrifuged lysate was diluted in 100 μl of lysis buffer, to which 4 μl of 25 mM ATP (Sigma) and 20 μl of 25 mM luciferin (Sigma) were added. The samples were then placed in a Lumet LB9501 luminometer (Berthold, Nashua, N.H.) and the light emission integration value was measured for 10 seconds. […]
# [4] = test system: HeLa; NIH 3T3; HEK298; COS; and 16HBE cell lines; assay: In vitro transfection activity of NeoChol and NeoChol/DOPE (luciferase); format: cell-based; conditions: various charge ratios (1.3-26 NeoChol/DNA, 0.66-26 NeoChol/DOPE/DNA); 5 cell lines; NeoChol alone weaker particularly in 16HBE
# Description: (§2) FIG. 8: Transfecting activity in various cell lines (HEK293, NIH3T3, HeLa, COS, 16HBE), which were transfected with the transfecting compound NeoChol. The expression of the reporter gene can be indicated as a function of the various charge ratio of the lipoplexes and plasmid DNA. The various cell lines were transfected according to the protocol as described in Example 8, using NeoChol/DNA lipoplexes, which were prepared by mixing 5 μg of plasmid DNA expressing luciferase. The data can be expressed in relative light units (RLU) per mg of cellular proteins.
# as §2, with “FIG. 9: Expression of luciferase” for “FIG. 8: Transfecting activity”, “compound NeoChol/DOPE (1:1).” for “compound NeoChol.”, “gene is” for “gene can be”, “using NeoChol/DOPE/DNA” for “using NeoChol/DNA”, “data are” for “data can be”, “proteins. […]” for “proteins.”
Structure (SMILES),transfection efficiency (luciferase expression) [1],cytotoxicity (total extractable cellular proteins in the cell lysate) (HeLa cells),mean positive charge [2],"cell line with highest transfection ([3]; HeLa, HEK293 and COS compared)","expression of the reporter gene luciferase (transfection) ([3]; lipoplexes with 5 μg plasmid DNA expressing luciferase, HeLa, HEK293 and COS cells, data in RLU per mg of cellular proteins)","theoretical mean charge ratio of optimum transfection efficiency ([3]; lipoplexes with 5 μg plasmid DNA, 3 cell lines)",charge ratio at which the transfection efficiency decreases ([3]; very high charge ratios),transfection efficacy (luciferase expression) [4]
"CC(C)CCCC(C)C1CCC2C3CC=C4CC(OC(=O)NCC5OC(OC6C(N)CC(N)C(OC7OC(CO)C(O)C(N)C7O)C6O)C(O)C(O)C5O)CCC4(C)C3CCC12C (stereo not drawn) [KanaChol, 3β[6′-kanamycin-carbamoyl]cholesterol]",less efficient overall,decrease in the total number of extractable cellular proteins,2-3,highest in the COS cell line,high expression levels,approximately 5,> 7,
"CC(C)CCCC(C)C1CCC2C3CC=C4CC(OC(=O)NCCSC[C@H]5O[C@@H](OC6C(O)[C@H](N)CC(N)[C@H]6O[C@H]6CC(CN)[C@@H](O)C(O)C6N)C(O)C5O[C@H]5OC(CN)[C@@H](O)C(O)C5N)CCC4(C)C3CCC12C (some centres unmarked) [NeoChol, (5″-aminoethylsulfanyl) neomycin carbamoyl cholesterol]",,,,,,,,efficient transfection; also recorded: somewhat less efficient
